Columns and labels:
[1] = target: T1, Adenosine deaminase (from bovine spleen) (Bos taurus, UniProt P56658); assay: ADA enzyme inhibition by UV-vis spectrophotometry (Kaplan method, absorbance at 265 nm); format: biochemical; conditions: for IC50: pH 7.5, 37°C, phosphate buffer; for Ki: secondary plot of apparent Km versus [I], inhibitor 0–130 μM, substrate 20–124 μM, 37°C, pH 7.5, read-out: Ki (inhibition constant)
T1 construct: Adenosine deaminase (from bovine spleen in 3.2 M ammonium sulfate) was purchased from Sigma; purchased Sigma (St. Louis, MO, USA); host or cells: bovine spleen (tissue-derived)
T1 sequence (P56658 1-363): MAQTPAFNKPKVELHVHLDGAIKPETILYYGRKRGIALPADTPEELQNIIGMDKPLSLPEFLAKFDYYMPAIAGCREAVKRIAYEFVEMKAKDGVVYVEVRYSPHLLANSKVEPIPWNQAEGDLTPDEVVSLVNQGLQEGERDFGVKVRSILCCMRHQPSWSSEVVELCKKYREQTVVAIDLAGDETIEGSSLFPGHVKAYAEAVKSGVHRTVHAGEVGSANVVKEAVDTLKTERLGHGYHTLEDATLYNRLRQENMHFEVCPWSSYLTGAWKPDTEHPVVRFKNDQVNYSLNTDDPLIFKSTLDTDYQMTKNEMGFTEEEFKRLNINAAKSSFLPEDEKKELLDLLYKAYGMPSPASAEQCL
Method: Adenosine deaminase (from bovine spleen in 3.2 M ammonium sulfate) was purchased from Sigma (St. Louis, MO, USA). Phosphate buffer 50 mM, pH 7.5, was used as media which is comprised NaH2PO4 and Na2HPO4 and are from Merck. In addition, other material such as solvents, were purchased from this company.
All of biological samples were prepared with double distilled water. The adenosine stock solution prepared and was used in concentration range of 0.01-0.4 mM. The concentration of enzyme in the assay mixture 50 mM sodium phosphate buffer, was 0.9 nM with a final volume of 1ml. Enzymatic activities were assayed by UV–vis spectrophotometry (Shimadzu-3100, Japan) based on Kaplan Method to follow the decrease in absorbance at 265 nm resulting from the conversion of adenosine to inosine.
For accurate determination of kinetic parameters, the IC50 values were evaluated, and then the enzyme inhibition was studied in 180 s intervals. […] In a competitive inhibition; Vmax is unaltered, whereas Km is increased. The slope of a competitive plot is equal to:
Slope=KmI/Vmax.Ki+Km/Vmax
All experiments performed in 37°C and phosphate buffer, pH=7.5.

Adenosine deaminase [2] = target: T2, Adenosine deaminase (Bos taurus, UniProt P56658); assay: Fluorescence spectroscopy of ADA 3-D structure changes; parameters: species or system bovine; conditions: excitation 290 nm, pH 7.5, 37°C; inhibitor 10 μM
T2 construct: Adenosine deaminase (from bovine spleen in 3.2 M ammonium sulfate) was purchased from Sigma; purchased Sigma (St. Louis, MO, USA); host or cells: bovine spleen (tissue-derived)
T2 sequence (P56658 1-363): T1 sequence (P56658 1-363)
Method: Fluorescence study has been done with fluorescent spectroscopy (Hitachi MPF-4, Japan), which its cell length is 1cm. In this method, the exciting wavelength was adjusted in 290 nm and the emission was studied in range of 300–400 nm for possible enzyme 3-D structure changes. In this experiment, different concentrations of inhibitors (5–100 μM) were investigated in the presence of ADA (0.01unit) by final volume of 400 μL with phosphate buffer.
To investigate changes in enzyme 3-D structure at different concentration of inhibitors (10–100 μM), the fluorescence experiments were done in excitation wavelength of 290 nm, which is due to tryptophan amino acids in the active site of enzyme Figure 5.
Figure 5 The fluorescence spectra of adenosine deaminase at pH=7.5 and T=37°C in the presence of different concentrations of three inhibitors: 10–100 μM.

adenosine deaminase [3] = conditions: cited from earlier work

Molecule	IC50 [1] [µM]	Ki [1] [µM]	enzyme structural changes by fluorescence intensity (Adenosine deaminase [2])	inhibition mechanism ([1]; kinetic studies)	Ki (adenosine deaminase [3]) [µM]
Cn1c([N+](=O)[O-])cnc1-c1nnco1 [Compound 1]	103	63	–	–	–
Cn1c([N+](=O)[O-])cnc1C#N [Compound 2]	41	20	sever structural changes	competitive	–
erythro-9-(2-hydroxy-3-nonyl) adenine [EHNA]	–	–	–	–	0.037
